The results in this text go back to ChEMBL document CHEMBL4342527, “Discovery of Novel Fungal Lanosterol 14α-Demethylase (CYP51)/Histone Deacetylase Dual Inhibitors to Treat Azole-Resistant Candidiasis” (J Med Chem, 2020).

Data set [1] has as its system Candida albicans. The data set is described as follows: Antifungal activity against azole-sensitive Candida albicans SC5314 after 48 hrs by spectrophotometry-based serial microdilution method. The settings on record: Candida albicans, SC5314, 48 h; read-out: MIC80. The data set is classed as functional.
Data set [2] deals with Candida albicans. Put plainly: Antifungal activity against azole-resistant Candida albicans 0304103 after 48 hrs by spectrophotometry-based serial microdilution method. The data set is classed as functional. The note with it: Candida albicans, 0304103, 48 h.
Data set [3] relates to Candida albicans. The data set is described as follows: Antifungal activity against azole-resistant Candida albicans 7781 after 48 hrs by spectrophotometry-based serial microdilution method. The note with it: Candida albicans, 7781, 48 h. The data set is classed as functional. Background: Dilution methods test growth across graded concentrations, often in twofold steps.
Data set [4] has as its system Candida albicans. Put plainly: Antifungal activity against azole-resistant Candida albicans 4108 after 48 hrs by spectrophotometry-based serial microdilution method. The data set is classed as functional. The note with it: Candida albicans, 4108, 48 h.
The next data set concerns Candida tropicalis. Put plainly: Antifungal activity against azole-resistant Candida tropicalis 5008 after 48 hrs by spectrophotometry-based serial microdilution method. The data set is classed as functional. The note with it: Candida tropicalis, 5008, 48 h.
The next data set concerns Cryptococcus neoformans. The data set is described as follows: Antifungal activity against azole-sensitive Cryptococcus neoformans H99 after 72 hrs by spectrophotometry-based serial microdilution method. Type of data set: functional, var grubii H99. The note with it: Cryptococcus neoformans, var grubii H99 , 72 h; read-out: MIC80.
For data set [5], the target named is T1, Lanosterol 14-alpha demethylase (Candida albicans (strain SC5314 / ATCC MYA-2876) (Yeast), UniProt P10613). Put plainly: Inhibition of CYP51 in azole-resistant Candida albicans 0304103 assessed as unknown sterol 1 level at 0.5 ug/ml after 24 hrs by GC-MS analysis (reference value: 2.91%). The arrangement: scale not given: the % may be the effect or the level left.
T1 sequence (P10613 whole entry): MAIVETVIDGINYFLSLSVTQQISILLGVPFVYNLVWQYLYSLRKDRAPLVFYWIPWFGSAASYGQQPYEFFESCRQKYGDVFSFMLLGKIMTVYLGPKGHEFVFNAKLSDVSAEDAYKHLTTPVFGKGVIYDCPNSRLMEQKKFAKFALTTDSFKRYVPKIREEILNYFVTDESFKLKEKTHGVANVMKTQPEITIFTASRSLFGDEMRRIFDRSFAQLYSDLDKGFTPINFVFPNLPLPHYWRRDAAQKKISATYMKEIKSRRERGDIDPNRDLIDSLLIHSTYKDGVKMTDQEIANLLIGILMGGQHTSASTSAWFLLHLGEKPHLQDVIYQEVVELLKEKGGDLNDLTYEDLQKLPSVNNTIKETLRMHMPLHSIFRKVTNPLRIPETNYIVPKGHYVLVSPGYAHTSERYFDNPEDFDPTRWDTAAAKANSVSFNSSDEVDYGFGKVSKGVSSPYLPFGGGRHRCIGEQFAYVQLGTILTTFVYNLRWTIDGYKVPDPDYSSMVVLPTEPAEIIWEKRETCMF

Data set [6] concerns the target T1, Lanosterol 14-alpha demethylase. The data set is described as follows: Inhibition of CYP51 in azole-resistant Candida albicans 0304103 assessed as ergosterol content at 0.5 ug/ml after 24 hrs by GC-MS analysis (reference value: 75.21%). The arrangement: scale not given: the % may be the effect or the level left.
Data set [7] shares this target. Put plainly: Inhibition of CYP51 in azole-resistant Candida albicans 0304103 assessed as unknown sterol 2 level at 0.5 ug/ml after 24 hrs by GC-MS analysis (reference value: 6.77%). The arrangement: scale not given: the % may be the effect or the level left.
For data set [8] the target is unchanged. Put plainly: Inhibition of CYP51 in azole-resistant Candida albicans 0304103 assessed as unknown sterol 3 level at 0.5 ug/ml after 24 hrs by GC-MS analysis (reference value: 4.78%). The arrangement: scale not given: the % may be the effect or the level left.
The target is the same in data set [9]. The data set is described as follows: Inhibition of CYP51 in azole-resistant Candida albicans 0304103 assessed as unknown sterol 4 level at 0.5 ug/ml after 24 hrs by GC-MS analysis (reference value: 1.29%). Also on record: scale not given: the % may be the effect or the level left.
Data set [10] has the same target. The data set is described as follows: Inhibition of CYP51 in azole-resistant Candida albicans 0304103 assessed as lanosterol level at 0.5 ug/ml after 24 hrs by GC-MS analysis (reference value: 4.15%). Also on record: scale not given: the % may be the effect or the level left.
For data set [11] the target is unchanged. Put plainly: Inhibition of CYP51 in azole-resistant Candida albicans 0304103 assessed as unknown sterol 5 level at 0.5 ug/ml after 24 hrs by GC-MS analysis (reference value: 4.87%). Also on record: scale not given: the % may be the effect or the level left.
The target in another data set is Histone deacetylase. Put plainly: Inhibition of HDAC in HUVEC using Boc-Lys(Ac)-AMC as substrate preincubated for 12 hrs followed by substrate addition and measured after 4 hrs by fluorimetry. The data set is classed as ADME, cell-based, Homo sapiens.
Data set [12] addresses T1, Lanosterol 14-alpha demethylase. Put plainly: Inhibition of CYP51 in azole-resistant Candida albicans 0304103 assessed as reduction in ERG11 gene expression at 32 ug/ml after 16 hrs by SYBR Green-1 dye based RT-PCR analysis. Also on record: species or system 304103.
Data set [13] deals with Candida albicans. The data set is described as follows: Inhibition of HDAC in azole-resistant Candida albicans 0304103 assessed as reduction in CDR1 gene expression at 32 ug/ml after 16 hrs by SYBR Green-1 dye based RT-PCR analysis. The settings on record: 304103.
The test system of data set [14] is Candida albicans. Put plainly: Inhibition of HDAC in azole-resistant Candida albicans 0304103 assessed as reduction in CDR2 gene expression at 32 ug/ml after 16 hrs by SYBR Green-1 dye based RT-PCR analysis. The settings on record: 304103.
For data set [15], the system named is Candida albicans. The data set is described as follows: Inhibition of HDAC in azole-resistant Candida albicans 0304103 assessed as reduction in MDR1 gene expression at 32 ug/ml after 16 hrs by SYBR Green-1 dye based RT-PCR analysis. The settings on record: 304103.
Data set [16] concerns Candida albicans. The data set is described as follows: Antifungal activity against Candida albicans 0304103 assessed as effect on filamentation up to 32 ug/ml after 4 hrs by differential interference contrast microscopic analysis. The data set is classed as functional, organism-based.
Data set [17] relates to Candida albicans. The data set is described as follows: Inhibition of biofilm formation in azole resistant Candida albicans 0304103 at 64 ug/ml after 24 hrs by XTT assay relative to control. The data set is classed as functional. The settings on record: Candida albicans, 0304103, 24 h.
Data set [18] relates to Candida albicans. The settings on record: 0304103, 32 ug/ml.
Description: Inhibition of HDAC in azole-resistant Candida albicans 0304103 assessed as decrease in rhodamine 6G efflux at 32 ug/ml after 16 hrs by fluorimetry

Each structure is given as a SMILES string. Converted amounts (≈) assume the structure as drawn. The source made the active and inactive calls. The calls are words filed in the database; no cut-off is given here. Where only a bound is given, the exact number is not on record here.

As for `OC(Cn1cncn1)(Cn1cncn1)c1ccc(F)cc1F` [FLUCONAZOLE], the MIC80 with Candida albicans [1] was 0.5 mg/L (≈ 1.63 µM); in the data set with Candida albicans [2], more than 64 mg/L; in the data set on Candida albicans [3], more than 64 mg/L; with Candida albicans [4] it was more than 64 mg/L; against Candida tropicalis, more than 64 mg/L; in the data set with Cryptococcus neoformans it was 2 mg/L (≈ 6.53 µM). Also, the Activity in [5] was 3.06%; in [6], 74.97%; in data set [7], 7.5%; in data set [8], 4.7%; in [9], 1.17%; in data set [10], 3.94%. Also, in data set [11], the Activity came out at 4.66%. At Histone deacetylase, this compound displayed an IC50 of more than 40 µM. The “inhibition (INH)” value in [12] was “Not Active”. Further, the inhibition result with Candida albicans [13], with Candida albicans [14], in the data set on Candida albicans [15] and in the data set with Candida albicans [18] was “inactive” throughout. Moreover, the outcome in the data set on Candida albicans [16] was inactive. For the same compound, in the data set with Candida albicans [17], the inhibition at 64 µg/mL is 22.9%.
With `CN(Cc1ccc(OCCCOc2ccc(CCC(=O)NO)cc2)cc1)CC(O)(Cn1cncn1)c1ccc(F)cc1F` (racemic), the MIC80 amounted to 1 mg/L (≈ 1.68 µM) in the data set on Candida albicans [1]; 2 mg/L (≈ 3.36 µM) in the data set with Candida albicans [2]; 2 mg/L (≈ 3.36 µM) with Candida albicans [3]; 4 mg/L (≈ 6.72 µM) in the data set with Candida albicans [4]; 4 mg/L (≈ 6.72 µM) against Candida tropicalis; 1 mg/L (≈ 1.68 µM) in the data set with Cryptococcus neoformans.
Consider `CN(Cc1cccc(OCCCOc2ccc(C(=O)NO)cc2)c1)CC(O)(Cn1cncn1)c1ccc(F)cc1F` (racemic), for which the MIC80 in the data set on Candida albicans [1] came to 1 mg/L (≈ 1.76 µM); with Candida albicans [2] it was 2 mg/L (≈ 3.52 µM); against Candida albicans [3], 4 mg/L (≈ 7.05 µM); against Candida albicans [4], 2 mg/L (≈ 3.52 µM); against Candida tropicalis, 4 mg/L (≈ 7.05 µM); in the data set on Cryptococcus neoformans it was 0.125 mg/L (≈ 0.22 µM).
`CN(Cc1ccc(-n2cnn(CCCCCC(=O)NO)c2=O)cc1)CC(O)(Cn1cncn1)c1ccc(F)cc1F` (racemic): the MIC80 stood at 32 mg/L (≈ 56.1 µM) with Candida albicans [1]; 16 mg/L (≈ 28 µM) with Candida albicans [2]; 32 mg/L (≈ 56.1 µM) against Candida albicans [3]; 64 mg/L (≈ 112 µM) in the data set on Candida albicans [4]; 64 mg/L (≈ 112 µM) in the data set with Candida tropicalis; 8 mg/L (≈ 14 µM) with Cryptococcus neoformans.
For the compound `CN(Cc1ccc(-n2cnn(CCCCCCC(=O)NO)c2=O)cc1)CC(O)(Cn1cncn1)c1ccc(F)cc1F` (racemic), the MIC80 with Candida albicans [1] was determined as 64 mg/L (≈ 109 µM); in the data set with Candida albicans [2], 16 mg/L (≈ 27.4 µM); in the data set on Candida albicans [3], 32 mg/L (≈ 54.7 µM); against Candida albicans [4] it was 64 mg/L (≈ 109 µM); in the data set on Candida tropicalis it was 64 mg/L (≈ 109 µM); with Cryptococcus neoformans, 8 mg/L (≈ 13.7 µM).
As to `CN(Cc1ccccc1OCCCOc1ccc(C(=O)NO)cc1)CC(O)(Cn1cncn1)c1ccc(F)cc1F` (racemic), the MIC80 in the data set on Candida albicans [1] came out at 4 mg/L (≈ 7.05 µM); with Candida albicans [2], 4 mg/L (≈ 7.05 µM); with Candida albicans [3] it was 4 mg/L (≈ 7.05 µM); against Candida albicans [4], 1 mg/L (≈ 1.76 µM); against Candida tropicalis, 8 mg/L (≈ 14.1 µM); in the data set on Cryptococcus neoformans, 0.5 mg/L (≈ 0.881 µM).
Turning to `CN(Cc1ccc(-n2cnn(CCCC(=O)NO)c2=O)cc1)CC(O)(Cn1cncn1)c1ccc(F)cc1F` (racemic), the MIC80 came out at 8 mg/L (≈ 14.7 µM) in the data set on Candida albicans [1]; 64 mg/L (≈ 118 µM) in the data set with Candida albicans [2]; 32 mg/L (≈ 59 µM) against Candida albicans [3]; 8 mg/L (≈ 14.7 µM) against Candida albicans [4]; 8 mg/L (≈ 14.7 µM) in the data set on Candida tropicalis; 2 mg/L (≈ 3.69 µM) in the data set on Cryptococcus neoformans.
As to `CN(Cc1ccc(-n2cnn(CCCc3ccc(C(=O)NO)cc3)c2=O)cc1)CC(O)(Cn1cncn1)c1ccc(F)cc1F` (racemic), the MIC80 in the data set on Candida albicans [1] came out at 32 mg/L (≈ 51.7 µM); against Candida albicans [2] it was 4 mg/L (≈ 6.47 µM); in the data set on Candida albicans [3], 2 mg/L (≈ 3.23 µM); with Candida albicans [4], 32 mg/L (≈ 51.7 µM); against Candida tropicalis, 8 mg/L (≈ 12.9 µM); in the data set on Cryptococcus neoformans it was 2 mg/L (≈ 3.23 µM).
Consider `O=C(NO)c1ccc(OCCCCc2ncn(CC(O)(Cn3cncn3)c3ccc(F)cc3F)n2)cc1` (racemic), for which the MIC80 was 4 mg/L (≈ 7.79 µM) in the data set with Candida albicans [1]; more than 64 mg/L in the data set with Candida albicans [2]; 64 mg/L (≈ 125 µM) against Candida albicans [3]; more than 64 mg/L against Candida albicans [4]; more than 64 mg/L with Candida tropicalis; 64 mg/L (≈ 125 µM) with Cryptococcus neoformans.

As a reminder, the MIC80 is the lowest concentration that inhibits either 80% of growth or 80% of the strains tested, depending on the study. One may read the IC50 as the midpoint of a concentration-inhibition curve. In general, inhibition refers to the change of the read-out against control, counted positive when it falls.
